Results reported in PubChem BioAssay AID1259407 (Chemical Carcinogenesis Research Information System (CCRIS), 2018).
Active and inactive are the calls of the source. The rule behind the calls is not given here.

Test system: CCRIS mutagenicity, Ames/micronucleus/aberration tests
Experiment: CCRIS mutagenicity studies
[1] = Test System: AMES SALMONELLA TYPHIMURIUM, Strain/Indicator: TA98, Metabolic Activation: NONE, Method: PREINCUBATION
[2] = Test System: AMES SALMONELLA TYPHIMURIUM, Strain/Indicator: TA100, Metabolic Activation: NONE, Method: PREINCUBATION
[3] = Test System: AMES SALMONELLA TYPHIMURIUM, Strain/Indicator: TA100, Metabolic Activation: NONE, Method: STANDARD PLATE
[4] = Test System: AMES SALMONELLA TYPHIMURIUM, Strain/Indicator: TA98, Metabolic Activation: NONE, Method: STANDARD PLATE
[5] = Test System: AMES SALMONELLA TYPHIMURIUM, Strain/Indicator: TA98, Metabolic Activation: RAT, LIVER, S-9, AROCLOR 1254, Method: STANDARD PLATE
[6] = Test System: AMES SALMONELLA TYPHIMURIUM, Strain/Indicator: TA1535, Metabolic Activation: NONE, Method: STANDARD PLATE
[7] = Test System: AMES SALMONELLA TYPHIMURIUM, Strain/Indicator: TA1535, Metabolic Activation: RAT, LIVER, S-9, AROCLOR 1254, Method: STANDARD PLATE
[8] = Test System: AMES SALMONELLA TYPHIMURIUM, Strain/Indicator: TA1537, Metabolic Activation: NONE, Method: STANDARD PLATE
[9] = Test System: AMES SALMONELLA TYPHIMURIUM, Strain/Indicator: TA1537, Metabolic Activation: RAT, LIVER, S-9, AROCLOR 1254, Method: STANDARD PLATE

Measured: mutagenic call

CCCCN
inactive: Test System: AMES SALMONELLA TYPHIMURIUM, Strain/Indicator: TA98, Metabolic Activation: HAMSTER, LIVER, S-9, AROCLOR 1254 (10%), Method: PREINCUBATION inactive; negative | [1] inactive; negative | Test System: AMES SALMONELLA TYPHIMURIUM, Strain/Indicator: TA98, Metabolic Activation: RAT, LIVER, S-9, AROCLOR 1254 (10%), Method: PREINCUBATION inactive; negative | Test System: AMES SALMONELLA TYPHIMURIUM, Strain/Indicator: TA100, Metabolic Activation: HAMSTER, LIVER, S-9, AROCLOR 1254 (10%), Method: PREINCUBATION inactive; negative | [2] inactive; negative | Test System: AMES SALMONELLA TYPHIMURIUM, Strain/Indicator: TA100, Metabolic Activation: RAT, LIVER, S-9, AROCLOR 1254 (10%), Method: PREINCUBATION inactive; negative | Test System: AMES SALMONELLA TYPHIMURIUM, Strain/Indicator: TA1535, Metabolic Activation: HAMSTER, LIVER, S-9, AROCLOR 1254 (10%), Method: PREINCUBATION inactive; negative | Test System: AMES SALMONELLA TYPHIMURIUM, Strain/Indicator: TA1535, Metabolic Activation: NONE, Method: PREINCUBATION inactive; negative | Test System: AMES SALMONELLA TYPHIMURIUM, Strain/Indicator: TA1535, Metabolic Activation: RAT, LIVER, S-9, AROCLOR 1254 (10%), Method: PREINCUBATION inactive; negative | Test System: AMES SALMONELLA TYPHIMURIUM, Strain/Indicator: TA1537, Metabolic Activation: HAMSTER, LIVER, S-9, AROCLOR 1254 (10%), Method: PREINCUBATION inactive; negative | Test System: AMES SALMONELLA TYPHIMURIUM, Strain/Indicator: TA1537, Metabolic Activation: NONE, Method: PREINCUBATION inactive; negative | Test System: AMES SALMONELLA TYPHIMURIUM, Strain/Indicator: TA1537, Metabolic Activation: RAT, LIVER, S-9, AROCLOR 1254 (10%), Method: PREINCUBATION inactive; negative

O=C(O)c1cc(Cl)ccc1Cl
inactive: [1] inactive; negative | Test System: AMES SALMONELLA TYPHIMURIUM, Strain/Indicator: TA98, Metabolic Activation: RAT LIVER S-9, PCB, Method: PREINCUBATION inactive; negative | [2] inactive; negative | Test System: AMES SALMONELLA TYPHIMURIUM, Strain/Indicator: TA100, Metabolic Activation: RAT LIVER S-9, PCB, Method: PREINCUBATION inactive; negative | Test System: AMES SALMONELLA TYPHIMURIUM, Strain/Indicator: TA104, Metabolic Activation: NONE, Method: PREINCUBATION inactive; negative | Test System: AMES SALMONELLA TYPHIMURIUM, Strain/Indicator: TA104, Metabolic Activation: RAT LIVER S-9, PCB, Method: PREINCUBATION inactive; negative | Test System: E.COLI, Strain/Indicator: WP2 UVRA, Metabolic Activation: NONE, Method: PREINCUBATION inactive; negative | Test System: E.COLI, Strain/Indicator: WP2 UVRA, Metabolic Activation: RAT LIVER S-9, PCB, Method: PREINCUBATION inactive; negative

O=C(O[C@@H]1Cc2c(O)cc(O)cc2O[C@H]1c1cc(O)c(O)c(O)c1)c1cc(O)c(O)c(O)c1
inactive: Test System: Ames Salmonella typhimurium, Strain/Indicator: TA102, Metabolic Activation: None, Method: Preincubation inactive; negative | Test System: Ames Salmonella typhimurium, Strain/Indicator: TA102, Metabolic Activation: Rat, Liver, S-9, Aroclor 1254 in 0.154 M KCl, Method: Preincubation inactive; negative

Cc1c2cc(CO)ccc2nc2c1c1c(c3ccccc32)O1
inactive: [3] inactive; negative

O=C(/C=N/O)Nc1ccccc1
inactive: Test System: AMES SALMONELLA TYPHIMURIUM, Strain/Indicator: TA98, Metabolic Activation: HAMSTER, LIVER, S-9, AROCLOR 1254, Method: STANDARD PLATE inactive; negative | [4] inactive; negative | [5] inactive; negative | Test System: AMES SALMONELLA TYPHIMURIUM, Strain/Indicator: TA100, Metabolic Activation: HAMSTER, LIVER, S-9, AROCLOR 1254, Method: STANDARD PLATE inactive; negative | [3] inactive; negative | Test System: AMES SALMONELLA TYPHIMURIUM, Strain/Indicator: TA100, Metabolic Activation: RAT, LIVER, S-9, AROCLOR 1254, Method: STANDARD PLATE inactive; negative | Test System: AMES SALMONELLA TYPHIMURIUM, Strain/Indicator: TA1535, Metabolic Activation: HAMSTER, LIVER, S-9, AROCLOR 1254, Method: STANDARD PLATE inactive; negative | [6] inactive; negative | [7] inactive; negative | Test System: AMES SALMONELLA TYPHIMURIUM, Strain/Indicator: TA1537, Metabolic Activation: HAMSTER, LIVER, S-9, AROCLOR 1254, Method: STANDARD PLATE inactive; negative | [8] inactive; negative | [9] inactive; negative | Test System: MOUSE LYMPHOMA, Strain/Indicator: L5178Y (TK+/TK-), Metabolic Activation: RAT, LIVER, S-9, AROCLOR 1254, Method: SUSPENSION/PLATE inactive; negative. reevaluation of results: negative
active: Test System: Mouse lymphoma, Strain/Indicator: L5178Y (tk+/tk-), Metabolic Activation: None, Method: Suspension/plate active; equivocal (previous evaluation: positive)

O=C1NC(=O)C(CCl)=C1Cl
active: [3] active; positive

O=C1c2ccccc2C(=O)c2c1cc(O)c(O)c2O
active: [4] active; positive | [5] active; positive | [8] active; positive | [9] active; positive | Test System: AMES SALMONELLA TYPHIMURIUM, Strain/Indicator: TA1538, Metabolic Activation: NONE, Method: STANDARD PLATE active; positive | Test System: AMES SALMONELLA TYPHIMURIUM, Strain/Indicator: TA1538, Metabolic Activation: RAT, LIVER, S-9, AROCLOR 1254, Method: STANDARD PLATE active; positive
inactive: [6] inactive; negative | [7] inactive; negative | Test System: AMES SALMONELLA TYPHIMURIUM, Strain/Indicator: TA1978, Metabolic Activation: NONE, Method: STANDARD PLATE inactive; negative | Test System: AMES SALMONELLA TYPHIMURIUM, Strain/Indicator: TA1978, Metabolic Activation: RAT, LIVER, S-9, AROCLOR 1254, Method: STANDARD PLATE inactive; negative

Cn1c(N=[N+]=[N-])nc2c3ccccc3ccc21
active: Test System: AMES SALMONELLA TYPHIMURIUM, Strain/Indicator: TA98(1,8-DNP6), Metabolic Activation: NONE, Method: STANDARD PLATE active; positive | [4] active; positive

FC(Cl)C(F)(F)F (configuration not stated)
inactive: Test System: AMES SALMONELLA TYPHIMURIUM, Strain/Indicator: TA97, Metabolic Activation: NONE, Method: VAPOR CHAMBER inactive; negative | Test System: AMES SALMONELLA TYPHIMURIUM, Strain/Indicator: TA97, Metabolic Activation: RAT LIVER S-9, Method: VAPOR CHAMBER inactive; negative | Test System: AMES SALMONELLA TYPHIMURIUM, Strain/Indicator: TA98, Metabolic Activation: NONE, Method: VAPOR CHAMBER inactive; negative | Test System: AMES SALMONELLA TYPHIMURIUM, Strain/Indicator: TA98, Metabolic Activation: RAT LIVER S-9, Method: VAPOR CHAMBER inactive; negative | Test System: AMES SALMONELLA TYPHIMURIUM, Strain/Indicator: TA100, Metabolic Activation: NONE, Method: VAPOR CHAMBER inactive; negative | Test System: AMES SALMONELLA TYPHIMURIUM, Strain/Indicator: TA100, Metabolic Activation: RAT LIVER S-9, Method: VAPOR CHAMBER inactive; negative | Test System: AMES SALMONELLA TYPHIMURIUM, Strain/Indicator: TA1535, Metabolic Activation: NONE, Method: VAPOR CHAMBER inactive; negative | Test System: AMES SALMONELLA TYPHIMURIUM, Strain/Indicator: TA1535, Metabolic Activation: RAT LIVER S-9, Method: VAPOR CHAMBER inactive; negative

COc1cc2c(cc1OC)-c1c3c(cc4c1[C@H](C2)N(C)CC4)OCO3
active: Test System: AMES SALMONELLA TYPHIMURIUM, Strain/Indicator: TA98, Metabolic Activation: RAT, LIVER, S-9, PHENOBARBITAL AND BETA-NAPHTHOFLAVONE, Method: PREINCUBATION active; positive | Test System: AMES SALMONELLA TYPHIMURIUM, Strain/Indicator: TA100, Metabolic Activation: RAT, LIVER, S-9, PHENOBARBITAL AND BETA-NAPHTHOFLAVONE, Method: PREINCUBATION active; positive

O=C(NCCCl)Nc1ncc([N+](=O)[O-])s1
active: [4] active; positive | [3] active; positive
